Activity calls are given as the source filed them. No cut-off for these calls is given here.
Tests used:
K562 [1] = assay: Induction of cell differentiation in human K562 cells at 0.5 uM incubated for 6 days by CD11b staining based flow cytometric analysis; type: functional; conditions: time 6.0 day
NB-4 [2] = assay: Induction of cell differentiation in human NB4 cells assessed as NBT positive cells at 0.5 uM incubated for 6 days by Nitro Blue tetrazolium chloride based microscopic analysis (reference value: 0 %); type: functional; conditions: time 6 day
NB-4 [3] = assay: Cell cycle arrest in human NB4 cells assessed as accumulation of cells at S phase at 0.5 uM incubated for 6 days for DAPI staining based flow cytometric analysis (reference value: 27 %); type: functional; conditions: time 6 day
K562 [4] = assay: Effect on cell cycle population in human K562 cells at 0.5 uM by DAPI staining based flow cytometric analysis; type: functional
ATRA-resistant NB4-LR2 [5] = assay: Antiproliferative activity against human ATRA-resistant NB4-LR2 cells assessed as effect on cell viability up to 2 uM incubated for 3 days by CCK8 assay; type: functional, cell-based; conditions: time 3.0 day
NB-4 [6] = assay: Induction of apoptosis in human NB4 cells assessed as late apoptotic cells at 1 uM incubated for 24 hrs by Annexin V-FITC/PI staining based flow cytometric analysis (reference value: 3.20 %); type: functional
[7] = Induction of apoptosis in human ATRA-resistant NB4-LR2 cells assessed as late apoptotic cells at 1 uM incubated for 24 hrs by Annexin V-FITC/PI staining based flow cytometric analysis (reference value: 7.23 %); type: functional
[8] = Induction of apoptosis in human ATRA-resistant NB4-LR2 cells assessed as necrotic cells at 1 uM incubated for 24 hrs by Annexin V-FITC/PI staining based flow cytometric analysis (reference value: 0.08 %); type: functional
K562 [9] = assay: Induction of apoptosis in human K562 cells assessed as necrotic cells at 1 uM incubated for 24 hrs by Annexin V-FITC/PI staining based flow cytometric analysis (reference value: 2.19 %); type: functional
NB-4 [10] = assay: Induction of apoptosis in human NB4 cells assessed as PARP cleavage at >1 uM incubated for 24 hrs by Western blot analysis; type: functional, cell-based
[11] = target: Peroxisome proliferator-activated receptor gamma (Homo sapiens) (UniProt P37231); assay: Agonist activity at Gal4-fused full length PPARgamma LBD (unknown origin) transfected in HEK293T cells co-transfected with pG5luc reporter and Renilla-luc at 0.1 to 1 uM incubated for 12 hrs by luciferase reporter gene assay; type: cell-based; conditions: dose 0.1-1 µM
Peroxisome proliferator-activated receptor gamma (Homo sapiens), sequence (P37231 whole entry, the tested form may be a part): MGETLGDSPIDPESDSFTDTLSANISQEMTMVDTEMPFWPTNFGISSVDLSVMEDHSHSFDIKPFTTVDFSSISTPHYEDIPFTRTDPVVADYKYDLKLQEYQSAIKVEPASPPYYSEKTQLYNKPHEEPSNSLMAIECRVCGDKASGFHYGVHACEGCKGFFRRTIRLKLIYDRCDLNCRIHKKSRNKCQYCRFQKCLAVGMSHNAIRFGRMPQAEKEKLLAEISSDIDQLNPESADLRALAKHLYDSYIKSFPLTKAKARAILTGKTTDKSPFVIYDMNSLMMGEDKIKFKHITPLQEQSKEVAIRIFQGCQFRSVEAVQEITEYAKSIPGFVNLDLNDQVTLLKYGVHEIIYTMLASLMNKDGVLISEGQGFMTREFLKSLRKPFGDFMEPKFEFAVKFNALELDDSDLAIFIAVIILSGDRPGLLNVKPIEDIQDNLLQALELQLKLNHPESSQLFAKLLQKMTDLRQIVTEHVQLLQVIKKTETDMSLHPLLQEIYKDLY

[12] = target: T1, Retinoic acid receptor RXR-gamma (Homo sapiens) (UniProt P48443); assay: Agonist activity at Gal4-fused full length RXRgamma LBD (unknown origin) transfected in HEK293T cells co-transfected with pG5luc reporter and Renilla-luc at 0.1 to 1 uM incubated for 12 hrs by luciferase reporter gene assay; type: cell-based; conditions: dose 0.1-1 µM
T1 sequence (whole entry): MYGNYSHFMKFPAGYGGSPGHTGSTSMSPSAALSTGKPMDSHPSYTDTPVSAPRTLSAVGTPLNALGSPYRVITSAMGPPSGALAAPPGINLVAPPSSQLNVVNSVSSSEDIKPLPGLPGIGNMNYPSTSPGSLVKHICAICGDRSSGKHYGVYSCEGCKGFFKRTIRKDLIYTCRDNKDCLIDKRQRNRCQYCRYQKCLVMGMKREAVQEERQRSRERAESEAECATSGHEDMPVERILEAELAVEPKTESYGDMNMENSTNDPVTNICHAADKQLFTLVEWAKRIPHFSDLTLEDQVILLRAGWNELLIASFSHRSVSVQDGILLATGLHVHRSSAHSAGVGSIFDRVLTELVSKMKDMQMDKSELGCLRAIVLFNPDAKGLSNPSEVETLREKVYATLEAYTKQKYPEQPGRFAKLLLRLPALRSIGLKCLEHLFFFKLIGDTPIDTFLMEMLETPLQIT

[13] = target: T2, Retinoic acid receptor RXR-beta (Homo sapiens) (UniProt P28702); assay: Competitive binding affinity to Gal4-fused full length RXRbeta LBD (unknown origin) transfected in HEK293T cells co-transfected with pG5luc reporter and Renilla-luc at 0.1 to 1 uM incubated for 12 hrs in presence of ATRA by luciferase reporter gene assay; type: cell-based; conditions: dose 0.1-1 µM
T2 sequence (whole entry): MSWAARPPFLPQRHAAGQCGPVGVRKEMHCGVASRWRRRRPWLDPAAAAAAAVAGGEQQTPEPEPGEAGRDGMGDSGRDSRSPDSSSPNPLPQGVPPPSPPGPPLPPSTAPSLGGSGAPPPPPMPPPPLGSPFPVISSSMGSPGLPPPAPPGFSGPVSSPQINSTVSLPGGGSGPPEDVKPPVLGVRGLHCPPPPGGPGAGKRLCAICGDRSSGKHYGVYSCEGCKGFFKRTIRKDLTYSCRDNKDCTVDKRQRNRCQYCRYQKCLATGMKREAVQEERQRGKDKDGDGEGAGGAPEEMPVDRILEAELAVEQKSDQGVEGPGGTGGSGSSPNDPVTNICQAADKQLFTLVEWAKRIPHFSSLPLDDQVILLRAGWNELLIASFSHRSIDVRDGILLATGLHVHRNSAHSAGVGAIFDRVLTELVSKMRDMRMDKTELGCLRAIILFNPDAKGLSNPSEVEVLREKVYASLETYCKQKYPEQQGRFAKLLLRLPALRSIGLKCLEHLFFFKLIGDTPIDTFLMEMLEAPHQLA

[14] = target: T3, Retinoic acid receptor alpha (Homo sapiens, UniProt P10276); assay: Agonist activity at Gal4-fused full length human RARalpha LBD transfected in HEK293T cells co-transfected with pG5luc reporter and Renilla-luc assessed as transactivation incubated for 12 hrs by dual luciferase reporter gene assay; type: cell-based
T3 sequence (P10276 whole entry): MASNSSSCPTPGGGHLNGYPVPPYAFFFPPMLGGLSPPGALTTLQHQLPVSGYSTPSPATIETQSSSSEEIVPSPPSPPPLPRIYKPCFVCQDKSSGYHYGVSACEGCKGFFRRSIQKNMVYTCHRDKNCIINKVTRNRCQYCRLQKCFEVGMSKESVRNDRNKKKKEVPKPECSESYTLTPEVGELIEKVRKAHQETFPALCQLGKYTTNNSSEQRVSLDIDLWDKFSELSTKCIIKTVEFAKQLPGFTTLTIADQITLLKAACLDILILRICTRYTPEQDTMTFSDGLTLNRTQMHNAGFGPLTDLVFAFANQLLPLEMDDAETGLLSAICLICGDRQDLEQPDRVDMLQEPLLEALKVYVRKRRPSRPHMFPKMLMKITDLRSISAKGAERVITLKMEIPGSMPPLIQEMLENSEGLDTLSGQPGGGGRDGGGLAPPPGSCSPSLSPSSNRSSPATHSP

ATRA-resistant NB4-LR2 [15] = assay: Cell cycle arrest in human ATRA-resistant NB4-LR2 cells assessed as increase in PLK1 expression at 2 uM incubated for 3 to 24 hrs by Western blot analysis; type: functional, cell-based; conditions: time 3-24 hrs
ATRA-resistant NB4-LR2 [16] = assay: Induction of apoptosis in human ATRA-resistant NB4-LR2 cells assessed as increase in cleaved-PARP expression at 2 uM incubated for 3 to 24 hrs by Western blot analysis; type: functional, cell-based; conditions: time 3-24 hrs
ATRA-resistant NB4-LR2 [17] = assay: Induction of mitosis in human ATRA-resistant NB4-LR2 cells assessed as upregulation of pS10-histone expression at 2 uM measured after 3 hrs by Western blot analysis; type: functional, cell-based
ATRA-resistant NB4-LR2 [18] = assay: Induction of DNA damage in human ATRA-resistant NB4-LR2 cells assessed as increase in gamma-H2AX expression at 2 uM by Western blot analysis; type: functional, cell-based

Row | Activity [11] | Activity [12] | EC50 [14] [µM] | SMILES | Activity (K562 [1]) | Activity (NB-4 [2]) [%] | Activity (NB-4 [3]) [%] | Activity (K562 [4]) | Activity (ATRA-resistant NB4-LR2 [5]) | Activity (NB-4 [6]) [%] | Activity [7] [%] | Activity [8] [%] | Activity (K562 [9]) [%] | Activity (NB-4 [10]) | Activity [13] | Activity (ATRA-resistant NB4-LR2 [15]) | Activity (ATRA-resistant NB4-LR2 [16]) | Activity (ATRA-resistant NB4-LR2 [17]) | Activity (ATRA-resistant NB4-LR2 [18])
1 | Weak_effect | Minimal_effect | 0.419 | Cc1cc2c(cc1C(=O)/C(Br)=C\c1ccc(C(=O)O)cc1)C(C)(C)CCC2(C)C | inactive | 69 | 8 | inactive | Active | 10.49 | 11.42 | 0.49 | 2.02 | Active | Not active; No Significant Competitive Effect On Atra Activation Observed | Active | Active | Active | Active; Dna Damage Detected When Apoptosis Occurred
2 | Weak_effect | Minimal_effect | 0.424 | Cc1cc2c(cc1C(=O)/C(Br)=C/c1ccc(C(=O)O)cc1)C(C)(C)CCC2(C)C | inactive | 64 | 7 | inactive | Active | 15.77 | 13.3 | 1.44 | 2.27 | Active | Not active; No Significant Competitive Effect On Atra Activation Observed | Active | Active | Active | Active; Dna Damage Detected When Apoptosis Occurred

Reference: ChEMBL document CHEMBL6134780, “Halogenated retinoid derivatives as dual RARα and RXRα modulators for treating acute promyelocytic leukemia cells” (Eur J Med Chem, 2024)
